Assay results as given in paper PMC6269719, “Extraction of Antioxidant Components from Bidens pilosa Flowers and Their Uptake by Human Intestinal Caco-2 Cells” (Molecules, 2013).
Blank lines part the entries; values can stand above or below the compound they belong to.

Tests used:
Caco-2 cells = test: Bidirectional transport across Caco-2 cell monolayers; conditions: pH 7.4, up to 60 min; for Papp, apical to basolateral flux: A→B, compounds tested within EM 1 mg/mL, mannitol 50 μM, 14-day monolayers
Procedure: (§1) To investigate the intestinal absorption and transport properties of the three DiCQAs and three PGAs, 14-day cultured Caco-2 monolayer cells were used for the bidirectional transport study.
(§2) It was cultured in Dulbecco’s Modified Eagle Medium (DMEM medium, Hyclone, Logan, UT, USA) containing high glucose (4.5 g/L) plus 10% fetal bovine serum (Biological Industries, Beit Haemek, Israel), 1% L-glutamine and 1% penicillin-streptomycin (Hyclone) at 37 °C, 5% CO2 with constant humidity controlled environment. The medium was replaced three times a week during cell growth and differentiation. Cells used in this study were between passages 25 and 40.
(§3) After the cells in the flask grew to 90%–100% confluency, cells were trypsinized and seeded on 12 mm transwells with 0.4 µm pore polyester membrane insert (product #3460, Corning Inc., Corning, NY, USA) at a density 2 × 10^5 cells/mL. Culture medium (0.5 mL and 1.5 mL, respectively) was added into the space between the transwell and the plate. The culture was incubated at 37 °C under 5% CO2 atmosphere and the medium was changed fresh every 48 h. The transepithelial electrical resistance (TEER) was measured with Millicell-ERS epithelial Voltohmmeter (Millipore, Bedford, MA, USA), which was reflected to the tightness of intercellular junctions and only cells with TEER (in Ω/cm^2) >300 Ω/cm^2 (at 14 day) were used for permeability study.
(§4) Before conducting the permeation test, the trasnswell insert was emerged and rinsed in 25 mM HEPES (pH 7.4 Hank’s Balanced Salt Solution, HBSS) and rinsed twice at 37 °C under 5% CO2 atmosphere, each time for 30 min. The paracellular marker molecule mannitol (low permeability), propranolol (highly permeability), and EM fraction (1 mg/mL) were separately dissolved in DMSO and diluted with HBSS to final concentrations of 50 μM, 10 μM, and 1 mg/mL (at non-cytotoxic concentration), respectively. The solutions were respectively transferred into the apical and basolateral zones of the transwell insert with the other side filled up with HBSS. The same pH (7.4) was used both in apical-to-basolateral (A→B) and basolateral-to-apical (B→A) transport directions during each experiment. The whole apparatus was incubated at 37 °C under 5% CO2 atmosphere and the permeation was examined at time point 5, 15, 30, and 60 min, respectively. Permeates obtained from various direction were analyzed with HPLC and LC-MS according to the aforementioned method. The apparent permeability coefficients (Papp, cm/s) and the efflux ratio were calculated according to the literature: Papp = (V/A × C0) × (dQ/dt) where V is the volume of receiver part (0.5 mL and/or 1.5 mL).
(§5) A is the surface area of the cell monolayer (1.1 cm^2).
(§6) C0 is the initial concentration of the extract (1 mg/mL).
(§7) dQ/dt is the cumulative transport rate (mg/mL/min). Efflux ratio = Papp,B→A/Papp,A→B

[1] = as above; conditions: human, Caco-2, pH 7.4
Procedure: as §1, §2, §3, §4, §5, §6, §7

db/db mice = test system: db/db mice; set-up: method as in doi:10.1016/j.jfca.2010.03.025; conditions: i.p., compared to the other two polyacetylenic glucosides; cited from earlier work

efflux ratio at 60 min, 1 mg/mL [1]: 32.1
SMILES: CC#CC#CC#C/C=C/CCC(CO)O[C@@H]1O[C@H](CO)[C@@H](O)[C@H](O)[C@H]1O (stereo partly drawn) [PGA 4, 2-β-D-glucopyranosyloxy-1-hydroxy-5(E)-tridecene-7,9,11-triyne]
Papp, apical to basolateral flux (Caco-2 cells): higher than the paracellular transport marker mannitol

Papp, apical to basolateral flux (Caco-2 cells): lower than the Papp for mannitol
Papp, basolateral to apical flux (Caco-2 cells; B→A, compound within EM 1 mg/mL): closed to that of propranolol
SMILES: CC#CC#CC#CC#CCCC(CO)O[C@@H]1O[C@H](CO)[C@@H](O)[C@H](O)[C@H]1O (stereo partly drawn) [PGA 5, 2-β-D-glucopyranosyloxy-1-hydroxytrideca-5,7,9,11-tetrayne]
Increasing serum insulin, reducing blood glucose levels and glycosylated HbA1c levels (db/db mice): most effective compound

Papp A→B at 60 min, 50 μM [1]: 0.43 ± 0.1 ×10⁻⁶ cm/s
SMILES: OC[C@@H](O)[C@@H](O)[C@H](O)[C@H](O)CO [mannitol, reference compound]

The remaining lines, values behind:

SMILES: O=C(/C=C/c1ccc(O)c(O)c1)O[C@@H]1[C@@H](OC(=O)/C=C/c2ccc(O)c(O)c2)C[C@@](O)(C(=O)O)C[C@@H]1O [DiCQA 1, 3,4-di-O-caffeoylquinic acid]
Papp, apical to basolateral flux (Caco-2 cells): higher than the paracellular transport marker mannitol

SMILES: O=C(/C=C/c1ccc(O)c(O)c1)O[C@H]1[C@H](O)C[C@](O)(C(=O)O)C[C@H]1OC(=O)/C=C/c1ccc(O)c(O)c1 [DiCQA 3, 4,5-di-O-caffeoylquinic acid]
Papp, apical to basolateral flux (Caco-2 cells): higher than the paracellular transport marker mannitol

SMILES: CC#CC#CC#C/C=C/CCC(CCO)O[C@@H]1O[C@H](CO)[C@@H](O)[C@H](O)[C@H]1O (stereo partly drawn) [PGA 6, 3-β-D-glucopyranosyloxy-1-hydroxy-6(E)-tetradecene-8,10,12-triyne]
efflux ratio at 60 min, 1 mg/mL [1]: 6.03
Papp, apical to basolateral flux (Caco-2 cells): higher than the paracellular transport marker mannitol

SMILES: CC(C)NCC(O)COc1cccc2ccccc12 (centres unmarked) [propranolol, reference compound]
Papp at 60 min, 10 μM [1]: 39.4 ± 4.12 ×10⁻⁶ cm/s
